Molecules are shown by their SMILES. Where a name gives a salt, the structure may show the parent alone.

From patent US4093724A, “Novel-3-(4-quinolylamino)-2-thiophene-carboxylates” (Roussel Uclaf, priority 1976, dated 1978) come the findings set out here.

The subject of this test is mice (stretching and twisting provoked by intraperitoneal injection of acetic acid). Briefly: Analgesic Activity: acetic acid-induced stretching test in mice (based on Koster et al). In kind it is in vivo. The following applies: Mus musculus, fasted 24 hours, test product oral 30 minutes before i.p. acetic acid (60 mg/kg), stretchings counted during 15 minutes after injection, read-out: AD50 (dose which reduced by 50% the number of stretching as compared to the controls). The procedure:
The test was based on that of Koster et al [Fed. Proc., Vol. 18 (1959) p. 412] wherein the intraperitoneal injection of acetic acid provokes in mice repeated stretching and twisting which persists for more than 6 hours and an analgesic prevents or suppresses this syndrom which is considered to be the exteriorization of a diffuse abdominal pain. A solution of 0.6% acetic acid in water containing 10% of arabic gum is used and the dose which causes the syndrom under these conditions is 0.01 ml/g or 60 mg/kg of acetic acid. The test products were orally administered 30 minutes before the intraperitoneal injection of acetic acid and the mice were fasted for 24 hours before the test.
For each dose and for the controls required in each test, groups of 5 mice were used and the stretchings were observed and counted for each mouse and added for each group, during a period of 15 minutes right after the injection. The AD50 or dose which reduced by 50% the number of stretching as compared to the controls was determined.
Regarding `O=C(OCCN1CCN(c2cccc(C(F)(F)F)c2)CC1)c1sccc1Nc1ccnc2cc(Cl)ccc12` [Example 3, 2-[4-(3-trifluoromethylphenyl)-1-piperazinyl]-ethyl 3-(7-chloro-4-quinolylamino)-2-thiophene-carboxylate], the ED50 stood at 20 mg/kg.

Take `O=C(OCCN1CCN(c2cccc(C(F)(F)F)c2)CC1)c1sccc1Nc1ccnc2c(C(F)(F)F)cccc12` [Example 1, 2-[4-(3-trifluoromethylphenyl)-1-piperazinyl]-ethyl 3-[8-trifluoromethyl-4-quinolylamino]-2-thiophene-carboxylate dihydrochloride]: the ED50 came out at 20 mg/kg.

`O=C(OCCN1CCN(c2ccc(Cl)cc2)CC1)c1sccc1Nc1ccnc2c(C(F)(F)F)cccc12` [Example 2, 2-[4-(4-chlorophenyl)-1-piperazinyl]-ethyl 3-(8-trifluoromethyl-4-quinolylamino)-2-thiophene-carboxylate]: the ED50 came to 15 mg/kg.
